How the values were obtained:
Assay type in all cases: in vivo
[1] = test system: Beet Armyworm (Spodoptera exigua, LAPHEG); assay: Bioassay on Beet Armyworm (BAW), 128-well diet tray assay; settings: 168 h, 50 μg/cm^2 on artificial diet, second instar larvae, 25° C., five to seven days, average of eight wells, read-out: BAW % Control (or Mortality) rating
Method: (§1) Certain molecules disclosed in this document were tested against BAW and CL using procedures described in the following examples. In the reporting of the results, the “BAW & CL Rating Table” was used (See Table Section).
Bioassays on BAW were conducted using a 128-well diet tray assay. One to five second instar BAW larvae were placed in each well (3 mL) of the diet tray that had been previously filled with approximately 1.5 mL of artificial diet to which 50 μg/cm^2 of the test molecule (dissolved in 50 μL of 90:10 acetone-water mixture) had been applied (to each of eight wells) and then allowed to dry. Trays were covered with a clear self-adhesive cover, vented to allow gas exchange, and held at 25° C., 14:10 light-dark for five to seven days. Percent mortality was recorded for the larvae in each well; activity in the eight wells was then averaged. The results are indicated in the table entitled “Table ABC: Biological Results” (See Table Section).

[2] = test system: Cabbage Looper (Trichoplusia ni, TRIPNI); assay: Bioassay on Cabbage Looper (CL), 128-well diet tray assay; settings: 168 h, 50 μg/cm^2 on artificial diet, second instar larvae, 25° C., five to seven days, average of eight wells, read-out: CL % Control (or Mortality) rating
Method: as §1
Bioassays on CL were conducted using a 128-well diet tray assay. one to five second instar CL larvae were placed in each well (3 mL) of the diet tray that had been previously filled with 1 mL of artificial diet to which 50 μg/cm^2 of the test molecule (dissolved in 50 μL of 90:10 acetone-water mixture) had been applied (to each of eight wells) and then allowed to dry. Trays were covered with a clear self-adhesive cover, vented to allow gas exchange, and held at 25° C., 14:10 light-dark for five to seven days. Percent mortality was recorded for the larvae in each well; activity in the eight wells was then averaged. The results are indicated in the table entitled “Table ABC: Biological Results” (See Table Section).

[3] = test system: Yellow Fever Mosquito (Aedes aegypti, AEDSAE); settings: about 1 day-old larvae, 96-well plate from 4000 ppm DMSO master, 3 days at room temperature
Method: Certain molecules disclosed in this document were tested against YFM using procedures described in the following paragraph. In the reporting of the results, the “GPA & YFM Rating Table” was used (See Table Section).
Master plates containing 400 μg of a molecule dissolved in 100 μL of dimethyl sulfoxide (DMSO) (equivalent to a 4000 ppm solution) are used. A master plate of assembled molecules contains 15 μL per well. To this plate, 135 μL of a 90:10 water/acetone mixture is added to each well. A robot is programmed to dispense 15 μL aspirations from the master plate into an empty 96-well shallow plate (“daughter” plate). There are 6 reps (“daughter” plates) created per master. The created “daughter” plates are then immediately infested with YFM larvae.
The day before plates are to be treated, mosquito eggs are placed in Millipore water containing liver powder to begin hatching (4 g. into 400 mL). After the “daughter” plates are created using the robot, they are infested with 220 μL of the liver powder/larval mosquito mixture (about 1 day-old larvae). After plates are infested with mosquito larvae, a non-evaporative lid is used to cover the plate to reduce drying. Plates are held at room temperature for 3 days prior to grading. After 3 days, each well is observed and scored based on mortality. The results are indicated in the table entitled “Table ABC: Biological Results” (See Table Section).

With `Cc1cc([C@H]2[C@H](C(=O)Nc3ccc(Cl)c(C(=O)NC4(C#N)CC4)c3)C2(Cl)Cl)cc(Cl)c1Cl` (relative stereo) [Molecule F51, trans-2-Chloro-N-(1-cyanocyclopropyl)-5-(2,2-dichloro-3-(3,4-dichloro-5-methylphenyl)cyclopropanecarboxamido)benzamide] the mortality at 50 µg/cm2 [1] was 50 to 100%, the mortality at 50 µg/cm2 [2] was 50 to 100% and the “YFM % Control (or Mortality) rating” value [3] was “D (No activity noticed in this bioassay)”.

`O=C(NC1COC1)c1cc(NC(=O)[C@H]2[C@H](c3cc(Cl)cc(Cl)c3)C2(Cl)Cl)ccc1Cl` (relative stereo) [Molecule F53, trans-2-Chloro-5-(2,2-dichloro-3-(3,5-dichlorophenyl)cyclopropanecarboxamido)-N-(oxetan-3-yl)benzamide] was tested, and the mortality at 50 µg/cm2 [1] was 50 to 100%, the mortality at 50 µg/cm2 [2] was 50 to 100% and the “YFM % Control (or Mortality) rating” value [3] was “A (80-100)”.

With `CC(C)(C)OC(=O)N1CC(NC(=O)c2cc(NC(=O)[C@H]3[C@H](c4cc(Cl)cc(Cl)c4)C3(Cl)Cl)ccc2Cl)C1` (relative stereo) [Molecule F54, trans-tert-butyl 3-(2-chloro-5-(2,2-dichloro-3-(3,5-dichlorophenyl)cyclopropanecarboxamido)-benzamido)azetidine-1-carboxylate] the mortality at 50 µg/cm2 [1] was 50 to 100%, the mortality at 50 µg/cm2 [2] was 50 to 100% and the “YFM % Control (or Mortality) rating” value [3] was “D (No activity noticed in this bioassay)”.

With `C[C@]1(c2cc(Cl)cc(Cl)c2)[C@H](C(=O)Nc2ccc(Cl)c(C(=O)NC3CC(F)(F)C3)c2)C1(Cl)Cl` (relative stereo) [Molecule F61, trans-2-chloro-5-(2,2-dichloro-3-(3,5-dichloro-phenyl)-3-methylcyclopropane-1-carboxamido)-N-(3,3-difluorocyclobutyl)-benzamide] the mortality at 50 µg/cm2 [1] was 50 to 100%, the mortality at 50 µg/cm2 [2] was 50 to 100% and the “YFM % Control (or Mortality) rating” value [3] was “A (80-100)”.

In the case of `C[C@@]1(c2cc(Cl)cc(Cl)c2)[C@H](C(=O)Nc2ccc(Cl)c(C(=O)NC3CC(F)(F)C3)c2)C1(Cl)Cl` (relative stereo) [Molecule F62, cis-2-Chloro-5-(2,2-dichloro-3-(3,5-dichlorophenyl)-3-methylcyclopropane-1-carboxamido)-N-(3,3-difluorocyclobutyl)benzamide], the mortality at 50 µg/cm2 [1] is reported as 0 to 50%, the mortality at 50 µg/cm2 [2] is reported as 0 to 50% and the “YFM % Control (or Mortality) rating” value [3] is reported as “D (No activity noticed in this bioassay)”.

For `O=C1CCC(NC(=O)c2cc(NC(=O)[C@H]3[C@H](c4cc(Cl)cc(Cl)c4)C3(Cl)Cl)ccc2Cl)CC1` (relative stereo) [Molecule F65, trans-2-Chloro-5-(2,2-dichloro-3-(3,5-dichlorophenyl)cyclopropane-1-carboxamido)-N-(4-oxocyclohexyl)benzamide], the mortality at 50 µg/cm2 [1] was 0 to 50%, the mortality at 50 µg/cm2 [2] was 50 to 100% and the “YFM % Control (or Mortality) rating” value [3] was “A (80-100)”.

In the case of `N#CC1(NC(=O)c2cc(NC(=O)[C@H]3[C@H](c4ccc(Br)c(Cl)c4)C3(Cl)Cl)ccc2Cl)CC1` (relative stereo) [Molecule F66, trans-5-(3-(4-bromo-3-chlorophenyl)-2,2-dichlorocyclopropane-1-carboxamido)-2-chloro-N-(1-cyanocyclopropyl)benzamide], the mortality at 50 µg/cm2 [1] is reported as 50 to 100%, the mortality at 50 µg/cm2 [2] is reported as 50 to 100% and the “YFM % Control (or Mortality) rating” value [3] is reported as “A (80-100)”.

With `C=Cc1ccc([C@H]2[C@H](C(=O)Nc3ccc(Cl)c(C(=O)NC4(C#N)CC4)c3)C2(Cl)Cl)cc1Cl` (relative stereo) [Molecule F67, trans-2-chloro-N-(1-cyanocyclopropyl)-5-(2,2-dichloro-3-(3-chloro-4-vinylphenyl)cyclopropane-1-carboxamido)benzamide] the mortality at 50 µg/cm2 [1] was 50 to 100%, the mortality at 50 µg/cm2 [2] was 50 to 100% and the “YFM % Control (or Mortality) rating” value [3] was “A (80-100)”.

`O=C1CC(NC(=O)c2cc(NC(=O)[C@H]3[C@H](c4cc(Cl)cc(Cl)c4)C3(Cl)Cl)ccc2Cl)C1` (relative stereo) [Molecule F68, trans-2-chloro-5-(2,2-dichloro-3-(3,5-dichloro-phenyl)cyclopropane-1-carboxamido)-N-(3-oxocyclobutyl)benzamide] was tested, and the mortality at 50 µg/cm2 [1] was 50 to 100%, the mortality at 50 µg/cm2 [2] was 50 to 100% and the “YFM % Control (or Mortality) rating” value [3] was “A (80-100)”.

With `O=C(NC1CC(F)(F)C1)c1cc(NC(=O)[C@H]2[C@H](c3ccc([N+](=O)[O-])cc3)C2(Cl)Cl)ccc1Cl` (relative stereo) [Molecule F69, trans-2-chloro-5-(2,2-dichloro-3-(4-nitrophenyl)cyclopropane-1-carboxamido)-N-(3,3-difluorocyclobutyl)benzamide] the mortality at 50 µg/cm2 [1] was 50 to 100%, the mortality at 50 µg/cm2 [2] was 50 to 100% and the “YFM % Control (or Mortality) rating” value [3] was “A (80-100)”.

`Nc1ccc([C@H]2[C@H](C(=O)Nc3ccc(Cl)c(C(=O)NC4CC(F)(F)C4)c3)C2(Cl)Cl)cc1` (relative stereo) [Molecule F70, trans-5-(3-(4-aminophenyl)-2,2-dichlorocyclopropane-1-carboxamido)-2-chloro-N-(3,3-difluorocyclobutyl)benzamide] was tested, and the mortality at 50 µg/cm2 [1] was 0 to 50%, the mortality at 50 µg/cm2 [2] was 50 to 100% and the “YFM % Control (or Mortality) rating” value [3] was “D (No activity noticed in this bioassay)”.

For `O=C1CCC(NC(=O)c2cc(NC(=O)[C@H]3[C@H](c4ccc(F)c(Cl)c4)C3(Cl)Cl)ccc2Cl)CC1` (relative stereo) [Molecule F81, trans-2-Chloro-5-(2,2-dichloro-3-(3-chloro-4-fluorophenyl)cyclopropane-1-carboxamido)-N-(4-oxocyclohexyl)benzamide], the mortality at 50 µg/cm2 [1] was 50 to 100%, the mortality at 50 µg/cm2 [2] was 50 to 100% and the “YFM % Control (or Mortality) rating” value [3] was “A (80-100)”.

In the case of `N#CC1(NC(=O)c2cc(NC(=O)[C@H]3[C@H](c4cc(F)c(Br)c(F)c4)C3(Cl)Cl)ccc2Cl)CC1` (relative stereo) [Molecule F82, trans-5-(3-(4-Bromo-3,5-difluorophenyl)-2,2-dichlorocyclopropane-1-carboxamido)-2-chloro-N-(1-cyanocyclopropyl)benzamide], the mortality at 50 µg/cm2 [1] is reported as 50 to 100%, the mortality at 50 µg/cm2 [2] is reported as 50 to 100% and the “YFM % Control (or Mortality) rating” value [3] is reported as “A (80-100)”.

`COc1cc([C@H]2[C@H](C(=O)Nc3ccc(Cl)c(C(=O)NC4(C#N)CC4)c3)C2(Cl)Cl)cc(F)c1Br` (relative stereo) [Molecule F83, trans-5-(3-(4-Bromo-3-fluoro-5-methoxyphenyl)-2,2-dichlorocyclopropane-1-carboxamido)-2-chloro-N-(1-cyanocyclopropyl)benzamide] was tested, and the mortality at 50 µg/cm2 [1] was 50 to 100%, the mortality at 50 µg/cm2 [2] was 50 to 100% and the “YFM % Control (or Mortality) rating” value [3] was “A (80-100)”.

For `COc1c(F)cc([C@H]2[C@H](C(=O)Nc3ccc(Cl)c(C(=O)NC4(C#N)CC4)c3)C2(Cl)Cl)cc1Br` (relative stereo) [Molecule F84, trans-5-(3-(3-Bromo-5-fluoro-4-methoxyphenyl)-2,2-dichlorocyclopropane-1-carboxamido)-2-chloro-N-(1-cyanocyclopropyl)benzamide], the mortality at 50 µg/cm2 [1] was 50 to 100%, the mortality at 50 µg/cm2 [2] was 50 to 100% and the “YFM % Control (or Mortality) rating” value [3] was “A (80-100)”.

`N#CC1(NC(=O)c2cc(NC(=O)[C@H]3[C@H](c4cc(Cl)cc(C(F)F)c4)C3(Cl)Cl)ccc2Cl)CC1` (relative stereo) [Molecule F85, trans-2-Chloro-N-(1-cyanocyclopropyl)-5-(2,2-dichloro-3-(3-chloro-5-(difluoro-methyl)phenyl)cyclopropane-1-carboxamido)benzamide] was tested, and the mortality at 50 µg/cm2 [1] was 50 to 100%, the mortality at 50 µg/cm2 [2] was 50 to 100% and the “YFM % Control (or Mortality) rating” value [3] was “A (80-100)”.

In the case of `N#CC1(NC(=O)c2cc(NC(=O)[C@H]3[C@H](c4ccc(Cl)c(C(F)F)c4)C3(Cl)Cl)ccc2Cl)CC1` (relative stereo) [Molecule F86, trans-2-Chloro-N-(1-cyanocyclopropyl)-5-(2,2-dichloro-3-(4-chloro-3-(difluoro-methyl)phenyl)cyclopropane-1-carboxamido)benzamide], the mortality at 50 µg/cm2 [1] is reported as 50 to 100%, the mortality at 50 µg/cm2 [2] is reported as 50 to 100% and the “YFM % Control (or Mortality) rating” value [3] is reported as “A (80-100)”.

From patent US9795139B2, “Molecules having pesticidal utility, and intermediates, compositions, and processes, related thereto” (priority 2015, dated 2017)
